Reference: PubChem BioAssay AID330 (DTP/NCI, 2004)
“And” between values parts separate entries of the source, which are not always exact repeats. Equal entries are not always repeated. Toxic doses and inconclusive results are not listed. Rule for the calls: active = survival T/C of 150% or more; inactive = T/C below 125% in these data.

System: P388 leukemia ip, CD2F1 mice, survival T/C
Assay: NCI In Vivo Anticancer Drug Screen. Data for tumor model P388 Leukemia (intraperitoneal) in CD2F1 (CDF1) mice
Conditions: endpoint: median survival time, higher = longer survival
Outline: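 Mice carrying the transplanted tumor received test compound or vehicle. Survival was recorded in each group, and the value is the treated-group measurement divided by that of the vehicle-treated control group.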

[1] = dose: 12.5 mg/kg/injection, schedule: Q04DX003 (ip), vehicle: saline with Tween-80
[2] = dose: 25.0 mg/kg/injection, schedule: Q04DX003 (ip), vehicle: saline with Tween-80
[3] = dose: 25.0 mg/kg/injection, schedule: Q04DX003 (ip), vehicle: saline
[4] = dose: 50.0 mg/kg/injection, schedule: Q04DX003 (ip), vehicle: saline with Tween-80
[5] = dose: 100.0 mg/kg/injection, schedule: Q04DX002 (ip), vehicle: saline with Tween-80
[6] = dose: 200.0 mg/kg/injection, schedule: Q04DX002 (ip), vehicle: saline with Tween-80
[7] = dose: 400.0 mg/kg/injection, schedule: Q04DX002 (ip), vehicle: saline with Tween-80
[8] = dose: 50.0 mg/kg/injection, schedule: Q01DX009 (ip), vehicle: saline with Tween-80
[9] = dose: 100.0 mg/kg/injection, schedule: Q01DX009 (ip), vehicle: saline with Tween-80
[10] = dose: 200.0 mg/kg/injection, schedule: Q01DX009 (ip), vehicle: saline with Tween-80
[11] = dose: 50.0 mg/kg/injection, schedule: Q01DX009 (ip), vehicle: saline
[12] = dose: 100.0 mg/kg/injection, schedule: Q04DX003 (ip), vehicle: suspension in saline
[13] = dose: 200.0 mg/kg/injection, schedule: Q04DX003 (ip), vehicle: suspension in saline
[14] = dose: 400.0 mg/kg/injection, schedule: Q04DX003 (ip), vehicle: suspension in saline
[15] = dose: 100.0 mg/kg/injection, schedule: Q01DX001 (ip), vehicle: Klucel (hydroxypropylcellulose) (HPC)
[16] = dose: 200.0 mg/kg/injection, schedule: Q01DX001 (ip), vehicle: Klucel (hydroxypropylcellulose) (HPC)

Measured: T/C

CCCCCCCC(=O)[O][Hg][CH2]C1COC([CH2][Hg][O]C(=O)CCCCCCC)CO1 (stereo not given)
inactive: [1] 95 % of control | dose: 16.5 mg/kg/injection, schedule: Q01DX009 (ip), vehicle: saline sonified 120 % of control | dose: 16.5 mg/kg/injection, schedule: Q04DX003 (ip), vehicle: saline 90 % of control | [2] 109 % of control | [3] 90 % of control | dose: 37.5 mg/kg/injection, schedule: Q01DX009 (ip), vehicle: saline sonified 120 % of control | dose: 37.5 mg/kg/injection, schedule: Q04DX003 (ip), vehicle: saline 90 % of control | [4] 118 % of control

COc1cccc2c1C(=O)c1c(O)c3c(c(O)c1C2=N)C[C@@](O)(C(C)=O)CC3OC1CC(N(Cc2ccccc2)Cc2ccccc2)C(O)C(C)O1 (stereo not given in full)
inactive: [1] 102 % of control | [2] 98 % of control | [4] 102 % of control and 123 % of control | dose: 100.0 mg/kg/injection, schedule: Q04DX003 (ip), vehicle: saline with Tween-80 111 % of control and 122 % of control | dose: 200.0 mg/kg/injection, schedule: Q04DX003 (ip), vehicle: saline with Tween-80 124 % of control | dose: 400.0 mg/kg/injection, schedule: Q04DX003 (ip), vehicle: saline with Tween-80 106 % of control

COc1ccc2c(c1)CCC1=C2CCC2(C)C1=CCS2(=O)=O (stereo not given)
inactive: dose: 60.0 mg/kg/injection, schedule: Q01DX005 (ip), vehicle: Klucel (hydroxypropylcellulose) (HPC) 105 % of control | dose: 120.0 mg/kg/injection, schedule: Q01DX005 (ip), vehicle: Klucel (hydroxypropylcellulose) (HPC) 90 % of control | dose: 240.0 mg/kg/injection, schedule: Q01DX005 (ip), vehicle: Klucel (hydroxypropylcellulose) (HPC) 97 % of control

CN(C)CCC[n+]1cc2c3ccccc3c(N)cc2c2ccccc21
inactive: dose: 3.13 mg/kg/injection, schedule: Q04DX003 (ip), vehicle: water 104 % of control | dose: 6.25 mg/kg/injection, schedule: Q04DX003 (ip), vehicle: water 121 % of control | dose: 12.5 mg/kg/injection, schedule: Q04DX003 (ip), vehicle: water 109 % of control | dose: 25.0 mg/kg/injection, schedule: Q04DX003 (ip), vehicle: water 109 % of control

CSc1ccccc1C(=O)O
inactive: [5] 104 % of control | [6] 101 % of control | [7] 102 % of control

CCOC(=O)Cc1ccnc(C)c1
inactive: [8] 90 % of control | [9] 90 % of control | [10] 100 % of control

C1=CNc2ccccc2N=C1
inactive: [11] 103 % of control | dose: 100.0 mg/kg/injection, schedule: Q01DX009 (ip), vehicle: saline 112 % of control | dose: 200.0 mg/kg/injection, schedule: Q01DX009 (ip), vehicle: saline 99 % of control

C[C@]12CC[C@H]3[C@@H](CC=C4C[C@@H](O)CC[C@@]43C)[C@@H]1CC[C@@H]2N(CCO)CCO
inactive: dose: 50.0 mg/kg/injection, schedule: Q01DX005 (ip), vehicle: Klucel (hydroxypropylcellulose) (HPC) 96 % of control | dose: 100.0 mg/kg/injection, schedule: Q01DX005 (ip), vehicle: Klucel (hydroxypropylcellulose) (HPC) 100 % of control | dose: 200.0 mg/kg/injection, schedule: Q01DX005 (ip), vehicle: Klucel (hydroxypropylcellulose) (HPC) 97 % of control

CC(=O)Nc1ccc(S(=O)(=O)CC(N)=O)cc1
inactive: dose: 12.5 mg/kg/injection, schedule: Q01DX009 (ip), vehicle: saline 105 % of control | dose: 25.0 mg/kg/injection, schedule: Q01DX009 (ip), vehicle: saline 104 % of control | [11] 107 % of control | dose: 50.0 mg/kg/injection, schedule: Q01DX009 (ip), vehicle: suspension in saline 97 % of control

COC(=O)c1ccccc1N1C(=O)C=CC1=O
inactive: dose: 6.25 mg/kg/injection, schedule: Q04DX003 (ip), vehicle: saline with Tween-80 92 % of control | [1] 92 % of control

CN1C(c2ccccc2)C2CSCC(C2O)C1c1ccccc1 (stereo not given)
inactive: [12] 106 % of control | [13] 100 % of control | [14] 98 % of control

CCOc1cc2c(cc1C(CC(=O)O)c1ccc(OC)cc1)OCO2 (stereo not given)
inactive: dose: 50.0 mg/kg/injection, schedule: Q01DX005 (ip), vehicle: distilled water + Tween-80 101 % of control | dose: 100.0 mg/kg/injection, schedule: Q01DX005 (ip), vehicle: distilled water + Tween-80 92 % of control | dose: 200.0 mg/kg/injection, schedule: Q01DX005 (ip), vehicle: distilled water + Tween-80 90 % of control

CCCCCCC1NC(CCCCC)N2C(CCCCC)N12 (stereo not given)
inactive: dose: 50.0 mg/kg/injection, schedule: Q01DX001 (ip), vehicle: Klucel (hydroxypropylcellulose) (HPC) 101 % of control | [15] 103 % of control | [16] 95 % of control

CCOC(=O)N(CCF)N=O
inactive: dose: 3.12 mg/kg/injection, schedule: Q01DX001 (ip), vehicle: saline with Tween-80 108 % of control and 96 % of control | dose: 6.25 mg/kg/injection, schedule: Q01DX001 (ip), vehicle: saline with Tween-80 108 % of control and 114 % of control | dose: 12.5 mg/kg/injection, schedule: Q01DX001 (ip), vehicle: saline with Tween-80 124 % of control | dose: 25.0 mg/kg/injection, schedule: Q01DX001 (ip), vehicle: saline with Tween-80 117 % of control

COC(=O)/C(=C(\C)C=O)N1C(=O)C(NC(=O)c2ccccc2)C1SSc1nc2ccccc2s1 (stereo not given)
inactive: [15] 108 % of control | [16] 95 % of control | dose: 400.0 mg/kg/injection, schedule: Q01DX001 (ip), vehicle: Klucel (hydroxypropylcellulose) (HPC) 112 % of control

N#CNC1=NC(c2ccccc2O)CC(=O)N1 (stereo not given)
inactive: [12] 98 % of control | [13] 105 % of control | [14] 100 % of control

CC(C)(O)C1OCC(C2CCC3(C)C4=CCC5C(C)(C)C(O)CCC5(C)C4CCC23C)CC1O (stereo not given)
inactive: dose: 2.5 mg/kg/injection, schedule: Q01DX009 (ip), vehicle: alcohol 98 % of control | dose: 5.0 mg/kg/injection, schedule: Q01DX009 (ip), vehicle: alcohol 101 % of control | dose: 10.0 mg/kg/injection, schedule: Q01DX009 (ip), vehicle: alcohol 100 % of control | dose: 20.0 mg/kg/injection, schedule: Q01DX009 (ip), vehicle: alcohol 99 % of control | dose: 40.0 mg/kg/injection, schedule: Q01DX009 (ip), vehicle: alcohol 110 % of control

Cc1cc(N2CCN(c3cc(C)c4ccccc4n3)CC2)nc2ccccc12
inactive: [8] 100 % of control | [9] 95 % of control | [10] 100 % of control

CC1(C)OC(=O)C(Cc2ccco2)C(=O)O1
inactive: [5] 97 % of control | [6] 106 % of control | [7] 101 % of control

COc1cc(OC)c(C/C=C/c2ccccc2)cc1O
inactive: dose: 2.5 mg/kg/injection, schedule: Q01DX009 (ip), vehicle: saline with Tween-80 100 % of control | dose: 5.0 mg/kg/injection, schedule: Q01DX009 (ip), vehicle: saline with Tween-80 100 % of control | dose: 10.0 mg/kg/injection, schedule: Q01DX009 (ip), vehicle: saline with Tween-80 102 % of control

CC(=N/N=C(N)N)/C(C)=N\Nc1ccc(Cl)cc1
inactive: [3] 101 % of control | dose: 50.0 mg/kg/injection, schedule: Q04DX003 (ip), vehicle: saline 101 % of control | dose: 100.0 mg/kg/injection, schedule: Q04DX003 (ip), vehicle: saline 108 % of control and 88 % of control
